Source: paper PMC9147171, “Pharmacokinetic/Pharmacodynamic Evaluation of a New Purine-2,6-Dione Derivative in Rodents with Experimental Autoimmune Diseases” (Pharmaceutics, 2022)

Test: Pharmacokinetic study in rats, single IP dose, serum
Type: in vivo
Details: female, Lewis, rat
Description: Female Lewis rats and female C57BL/6 mice were administered IP with compound 34 dissolved in vehicle at a dose of 20 and 50 mg·kg^−1, respectively. Rats and mice were sacrificed at different time points (n = 3 per time point) following compound administration by decapitation under deep anesthesia. Thereafter, blood samples were harvested and allowed to clot at room temperature for 20 min and serum was separated by centrifugation at 3000 rpm for 10 min (EBA 12 R, Hettich, Germany). The obtained serum samples were stored at −80 °C until analysis.
Concentrations of compound 34 in rat and murine serum were quantified by an HPLC/UV method. To isolate the investigated compound, 100 μL of serum containing compound 34 or the same volume of blank serum spiked with a standard solution of compound 34, 10 μL of 4-(8-((furan-2-ylmethyl)amino)-1,3-dimethyl-2,6-dioxo-2,3,6,7-tetrahydro-1H-purin-7-yl)-N’-(2-hydroxybenzylidene)butanehydrazide methanol solution was used as an internal standard (IS) at a concentration of 80 μg·mL^−1, and 50 μL of 0.2 M NaOH solution was added. Subsequently, 1 mL of ethyl acetate was added to each sample and extraction was performed for 20 min on a VXR Vibrax shaker (IKA, Germany). Then, the samples were centrifuged (10,000× g, 5 min) on EBA 12 R centrifuge (Hettich, Germany) and the organic layers were collected and transferred to clean tubes. Subsequently, the organic layers were evaporated under a mild stream of nitrogen at 37 °C and the residues were dissolved in 100 μL of mobile phase and subjected to an HPLC analysis. The HPLC system (LaChrom Elite, Merck-Hitachi, Germany) consisted of L-2420 UV-VIS detector, an L-2200 autosampler, and an L-2130 pump. EZChrome Elite v. 3.2 (Merck-Hitachi, Germany) software was used for data acquisition and integration. The analysis was performed at ambient temperature on a LiChrospher 100 RP-18 column (250 × 4 mm) and a LiChroCART (4 × 4 mm) pre-column (Merck, Germany). The mobile phase was composed of acetonitrile mixed with 20 mM KH2PO4 water solution (pH = 4.5) at the ratio of 40:60 (v/v). A flow rate was 1 mL·min^−1 and analytical wavelength was set at 302 nm. The retention times of compound 34 and IS were approximately 6.3 min and 10.6 min. The method was validated according to the FDA Bioanalytical Method Validation Guidance for Industry (2018). The calibration curves constructed by plotting the peak area of the studied compound to the peak area of the IS vs. compound concentrations were linear in the tested concentration range, i.e., from 0.05–10 mg·L^−1 (r > 0.998). The limit of quantification was 0.05 mg·L^−1. […] The assay presented acceptable intra- and inter-assay precision and accuracy (i.e., they were within 15% of the CV and 15% of the nominal concentration, respectively) for all quality control concentrations (0.1, 1, and 5 mg·L^−1). The mean extraction efficiencies of the analyzed compound and the IS were above 80%.
Pharmacokinetics of compound 34 were investigated in rats and mice following single IP administration. One- and two-compartment models with first-order absorption and linear elimination were tested, but only the one-compartment model appropriately described the concentration-time courses of compound 34 in both rat and murine serum. […] The equations of the model are as follows:(1) dA/dt=−ka×A;A0=D×F, (2) Vd×dCp/dt=ka×A−CLT×Cp; Cp0=0 where A is the amount of the drug at the absorption site, ka is the first-order rate constant of drug absorption, D is the dose, F is the bioavailability, Vd is the volume of distribution, CLT is the total clearance, and Cp is the serum concentration of compound 34.

absorption half-life (serum, 20 mg·kg^−1, IP, suspension in 10% methylcellulose): 1.2 min
Vd/F (single IP dose 20 mg·kg^−1, serum, one-compartment model, read-out: Vd/F Apparent volume of distribution, Final Estimate (CV%)): 8.7 L/kg
AUC (single IP dose 20 mg·kg^−1, serum, read-out: AUC Area under the concentration-time curve, Final Estimate (CV%) (converted)): 752 ng·h/mL
CL/F (single IP dose 20 mg·kg^−1, serum, read-out: CLT/F Apparent clearance, Final Estimate (CV%)): 440 mL/min/kg
Cmax (single IP dose 20 mg·kg^−1, serum, read-out: Cmax Maximum serum concentration, Final Estimate (CV%)): 1820 ng/mL
half-life (single IP dose 20 mg·kg^−1, serum, read-out: t0.5 Elimination half-life, Final Estimate (CV%)): 13.6 min
SMILES: Cn1c(=O)c2c(nc(NCCc3ccccc3)n2CCCC(=O)NN=Cc2ccc(O)c(O)c2O)n(C)c1=O [Compound 34, 4-(1,3-dimethyl-2,6-dioxo-8-(phenethylamino)-2,3,6,7-tetrahydro-1H-purin-7-yl)-N′-(2,3,4-trihydroxybenzylidene)butanehydrazide]
